Assay results: ChEMBL document CHEMBL1201862, “PubChem BioAssay data set” (2004)
Calls of active or inactive are those of the source.

Columns and labels:
[1] = A Cell Based Secondary Assay To Explore Cytotoxicity of Compounds that Sensitize Mycobacterium Tuberculosis to Beta-Lactam Antibiotics.; format: functional
H9c2 = test: cells; format: functional, cell-based; settings: Rattus norvegicus, H9c2, Myocardium;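 note: confirmatory concentration-response retest of ultra-high-throughput screening hits for modulation of myocardial damage; cell death induced by hydrogen peroxide oxidative stress; compound pretreatment for 60 min then peroxide exposure for 2 h; potency is for protecting the cells against peroxide damage rather than for killing them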
Leucine aminopeptidase = molecular target: T1, Leucine aminopeptidase (Plasmodium falciparum 3D7, UniProt Q8IL11); test: P. falciparum M17LAP inhibitors, primary screen, biochemical, fluorogenic H-Leu-NHMec substrate, 1536-well (AID 1619); format: functional
T1 sequence (Q8IL11 whole entry): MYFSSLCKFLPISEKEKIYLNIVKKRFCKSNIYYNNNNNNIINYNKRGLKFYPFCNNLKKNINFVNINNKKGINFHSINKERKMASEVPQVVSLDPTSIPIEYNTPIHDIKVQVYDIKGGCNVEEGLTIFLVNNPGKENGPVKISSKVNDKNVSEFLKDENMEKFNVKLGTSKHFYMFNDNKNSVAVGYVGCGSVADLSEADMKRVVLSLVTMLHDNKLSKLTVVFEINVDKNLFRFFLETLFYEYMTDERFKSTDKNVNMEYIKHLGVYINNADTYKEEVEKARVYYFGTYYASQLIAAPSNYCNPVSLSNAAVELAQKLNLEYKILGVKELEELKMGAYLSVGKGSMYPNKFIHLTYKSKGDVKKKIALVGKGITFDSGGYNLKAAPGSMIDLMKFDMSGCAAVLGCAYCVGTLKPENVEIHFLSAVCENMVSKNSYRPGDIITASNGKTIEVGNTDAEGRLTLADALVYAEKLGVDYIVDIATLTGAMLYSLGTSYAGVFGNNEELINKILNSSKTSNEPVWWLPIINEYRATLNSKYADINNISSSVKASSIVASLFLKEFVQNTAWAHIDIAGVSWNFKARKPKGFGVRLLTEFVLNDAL

[2] = molecular target: T2, Replicative DNA helicase DnaB (Mycobacterium tuberculosis, UniProt P9WMR3); test: DnaB intein splicing inhibitors, dose response, biochemical, cell-free fluorescence (AID 449749); format: functional
T2 sequence (P9WMR3 whole entry): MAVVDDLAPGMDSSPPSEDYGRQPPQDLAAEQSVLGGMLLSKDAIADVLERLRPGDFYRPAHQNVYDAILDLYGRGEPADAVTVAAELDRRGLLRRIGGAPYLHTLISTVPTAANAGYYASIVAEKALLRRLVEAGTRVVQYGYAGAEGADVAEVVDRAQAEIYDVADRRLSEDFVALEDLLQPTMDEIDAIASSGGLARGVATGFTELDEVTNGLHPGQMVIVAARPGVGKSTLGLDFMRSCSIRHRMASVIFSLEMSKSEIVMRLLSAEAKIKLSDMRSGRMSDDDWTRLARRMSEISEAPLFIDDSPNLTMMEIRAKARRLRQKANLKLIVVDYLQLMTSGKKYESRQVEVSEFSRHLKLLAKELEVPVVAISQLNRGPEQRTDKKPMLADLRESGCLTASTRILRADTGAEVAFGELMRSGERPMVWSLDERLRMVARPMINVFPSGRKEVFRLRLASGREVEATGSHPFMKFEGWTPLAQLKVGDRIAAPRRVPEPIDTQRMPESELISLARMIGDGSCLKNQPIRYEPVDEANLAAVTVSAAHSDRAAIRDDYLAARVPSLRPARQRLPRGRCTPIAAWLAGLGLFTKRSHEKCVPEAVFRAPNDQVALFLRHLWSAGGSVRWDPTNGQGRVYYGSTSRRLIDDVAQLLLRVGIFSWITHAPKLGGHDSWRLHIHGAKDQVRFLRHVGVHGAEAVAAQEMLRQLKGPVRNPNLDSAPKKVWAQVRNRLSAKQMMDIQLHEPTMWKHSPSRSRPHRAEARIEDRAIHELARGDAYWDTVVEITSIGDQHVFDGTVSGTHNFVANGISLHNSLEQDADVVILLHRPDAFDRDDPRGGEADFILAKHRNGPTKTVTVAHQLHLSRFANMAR

Protein RecA = molecular target: T3, Protein RecA (Mycobacterium tuberculosis, UniProt P9WHJ3); test: Fluorescence Cell-Free Homogeneous Dose Retest to Identify Inhibitors of RecA-Intein Splicing Activity. [Related pubchem assays (depositor defined):AID2097, AID2223, AID489010, AID492950]; format: functional
T3 sequence (P9WHJ3 whole entry): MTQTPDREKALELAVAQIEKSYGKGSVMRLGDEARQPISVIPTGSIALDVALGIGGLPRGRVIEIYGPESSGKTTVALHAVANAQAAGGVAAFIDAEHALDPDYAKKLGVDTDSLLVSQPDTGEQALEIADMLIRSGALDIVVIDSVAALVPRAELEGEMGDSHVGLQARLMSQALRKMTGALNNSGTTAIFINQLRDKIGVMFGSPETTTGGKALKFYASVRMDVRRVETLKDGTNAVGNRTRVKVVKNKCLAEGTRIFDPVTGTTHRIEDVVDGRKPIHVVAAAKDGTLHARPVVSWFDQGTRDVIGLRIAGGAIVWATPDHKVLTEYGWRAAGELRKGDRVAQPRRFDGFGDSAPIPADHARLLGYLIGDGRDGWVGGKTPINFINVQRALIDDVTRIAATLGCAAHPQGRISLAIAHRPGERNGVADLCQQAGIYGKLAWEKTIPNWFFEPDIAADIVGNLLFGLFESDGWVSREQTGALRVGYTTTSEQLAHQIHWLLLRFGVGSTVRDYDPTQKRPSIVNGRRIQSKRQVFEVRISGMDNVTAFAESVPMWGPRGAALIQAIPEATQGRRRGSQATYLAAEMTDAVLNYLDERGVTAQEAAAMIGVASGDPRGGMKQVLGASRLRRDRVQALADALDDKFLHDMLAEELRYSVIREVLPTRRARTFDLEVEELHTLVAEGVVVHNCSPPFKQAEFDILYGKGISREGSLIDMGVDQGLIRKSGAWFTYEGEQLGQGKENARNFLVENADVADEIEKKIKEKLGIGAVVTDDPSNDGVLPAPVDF

[3] = molecular target: Voltage-dependent T-type calcium channel subunit alpha-1H (Homo sapiens, UniProt O95180); format: functional;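 note: channel activity triggered by adding a high calcium stimulation buffer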
[4] = molecular target: Eukaryotic translation initiation factor 4E (Mus musculus, UniProt P63073); test: eIF4E–eIF4G protein interaction inhibitors, dose response, biochemical, TR-FRET (AID 855); format: functional;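 note: potency for disrupting eIF4E binding to eIF4GI seen as loss of FRET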
Coagulation factor XII = molecular target: T4, Coagulation factor XII (Homo sapiens, UniProt P00748); format: functional;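 note: activated factor XIIa alpha cleaving a fluorogenic AMC peptide substrate; inhibitor potency from loss of enzyme activity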
T4 sequence (P00748 whole entry): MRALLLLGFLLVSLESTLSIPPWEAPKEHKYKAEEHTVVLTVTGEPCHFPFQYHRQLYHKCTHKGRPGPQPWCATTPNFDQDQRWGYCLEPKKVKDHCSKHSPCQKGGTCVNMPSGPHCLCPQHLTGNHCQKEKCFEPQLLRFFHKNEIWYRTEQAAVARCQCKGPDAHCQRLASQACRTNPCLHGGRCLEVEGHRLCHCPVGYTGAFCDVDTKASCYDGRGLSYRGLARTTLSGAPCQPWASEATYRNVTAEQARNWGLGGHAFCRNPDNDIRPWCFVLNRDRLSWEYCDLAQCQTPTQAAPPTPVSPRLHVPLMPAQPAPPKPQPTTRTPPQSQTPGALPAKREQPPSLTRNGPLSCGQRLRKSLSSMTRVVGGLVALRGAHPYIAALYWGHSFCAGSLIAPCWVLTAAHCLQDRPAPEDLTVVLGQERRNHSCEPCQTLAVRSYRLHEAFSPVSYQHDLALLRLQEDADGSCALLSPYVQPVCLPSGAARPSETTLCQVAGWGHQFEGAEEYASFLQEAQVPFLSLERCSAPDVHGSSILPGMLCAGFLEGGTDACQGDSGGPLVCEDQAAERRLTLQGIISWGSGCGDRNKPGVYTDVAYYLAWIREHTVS

[5] = molecular target: T5, Voltage-gated N-type calcium channel alpha-1B subunit/Amyloid beta A4 precursor protein-binding family A member 1 (Homo sapiens, UniProt Q00975+Q02410); format: protein assay
[6] = molecular target: T5, Voltage-gated N-type calcium channel alpha-1B subunit/Amyloid beta A4 precursor protein-binding family A member 1; format: protein assay; remark: listed apart in the source
[7] = growth suppression of PTEN-null colon cells, dose response, cell-based, HCT116 PTEN knockout (AID 1047); format: functional;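 note: HCT116 colon tumor cells with PTEN knocked out; cells exposed to compound for 60 hours before readout; potency for loss of cell viability measured by luminescence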
[8] = growth suppression of beta-catenin-knockout colon cells, dose response, cell-based, HCT116, human colon tumor (AID 1045); format: functional;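 note: HCT116 colon tumor cells with beta catenin knocked out; cells exposed to compound for 60 hours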
Cytochrome P450 2D6 = Cytochrome P450 2D6 (Homo sapiens, UniProt P10635);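 note: CYP2D6 member of a cytochrome P450 panel assay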
Cytochrome P450 1A2 = molecular target: T6, Cytochrome P450 1A2 (Homo sapiens, UniProt P05177);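 note: PubChem cytochrome P450 panel assay, CYP1A2 panel member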
T6 sequence (P05177 whole entry): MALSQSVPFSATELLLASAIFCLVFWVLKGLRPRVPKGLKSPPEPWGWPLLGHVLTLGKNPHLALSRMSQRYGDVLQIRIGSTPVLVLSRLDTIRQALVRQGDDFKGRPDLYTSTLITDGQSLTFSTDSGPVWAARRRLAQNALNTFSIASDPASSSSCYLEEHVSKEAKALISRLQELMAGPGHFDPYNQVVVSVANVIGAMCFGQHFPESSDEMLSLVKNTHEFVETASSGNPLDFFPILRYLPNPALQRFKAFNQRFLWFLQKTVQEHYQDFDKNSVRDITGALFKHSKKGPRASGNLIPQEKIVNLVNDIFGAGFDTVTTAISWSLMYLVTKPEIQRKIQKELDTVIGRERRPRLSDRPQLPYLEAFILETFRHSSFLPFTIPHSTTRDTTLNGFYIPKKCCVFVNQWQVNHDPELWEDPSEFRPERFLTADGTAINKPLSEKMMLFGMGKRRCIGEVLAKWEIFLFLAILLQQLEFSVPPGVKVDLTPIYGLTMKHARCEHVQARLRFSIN

Cytochrome P450 3A4 = Cytochrome P450 3A4 (Homo sapiens, UniProt P08684);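 note: CYP3A4 tested as one member of a cytochrome P450 panel screen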
Cytochrome P450 2C9 = Cytochrome P450 2C9 (Homo sapiens, UniProt P11712)
[9] = inhibitors of firefly luciferase expression or activity, dose response, H4 neuroglioma cells, luminescence (AID 1990); format: functional, cell-based
[10] = Luminescence Cell-Based Dose Response HTS to Identify Inhibitors of 5'UTR Stem-Loop Driven Prion Protein mRNA Translation in H4 Neuroglioblastoma Cells. [Related pubchem assays: 1827 (Project Summary), 1813 (Primary HTS)]; format: functional
[11] = inhibitors of SNCA 5'UTR-driven reporter translation, confirmation, H4 neuroglioma cells, luminescence (AID 1988); format: functional, cell-based
[12] = THP-1 cell cytotoxicity, dose response, cytotoxicity control for non-replicating M. tuberculosis project (AID 489025); format: functional
[13] = HepG2 cell cytotoxicity, dose response, cytotoxicity control for non-replicating M. tuberculosis project (AID 489018); format: functional; settings: Mycobacterium tuberculosis
cells = format: functional
Prothrombin = Prothrombin (Homo sapiens, UniProt P00734); test: Thrombin 1536 HTS Dose Response Confirmation. [Related pubchem assays: 1046 (Thrombin 1536 HTS; hits were confirmed in this assay)]; format: functional

T5 sequence (Q00975 whole entry): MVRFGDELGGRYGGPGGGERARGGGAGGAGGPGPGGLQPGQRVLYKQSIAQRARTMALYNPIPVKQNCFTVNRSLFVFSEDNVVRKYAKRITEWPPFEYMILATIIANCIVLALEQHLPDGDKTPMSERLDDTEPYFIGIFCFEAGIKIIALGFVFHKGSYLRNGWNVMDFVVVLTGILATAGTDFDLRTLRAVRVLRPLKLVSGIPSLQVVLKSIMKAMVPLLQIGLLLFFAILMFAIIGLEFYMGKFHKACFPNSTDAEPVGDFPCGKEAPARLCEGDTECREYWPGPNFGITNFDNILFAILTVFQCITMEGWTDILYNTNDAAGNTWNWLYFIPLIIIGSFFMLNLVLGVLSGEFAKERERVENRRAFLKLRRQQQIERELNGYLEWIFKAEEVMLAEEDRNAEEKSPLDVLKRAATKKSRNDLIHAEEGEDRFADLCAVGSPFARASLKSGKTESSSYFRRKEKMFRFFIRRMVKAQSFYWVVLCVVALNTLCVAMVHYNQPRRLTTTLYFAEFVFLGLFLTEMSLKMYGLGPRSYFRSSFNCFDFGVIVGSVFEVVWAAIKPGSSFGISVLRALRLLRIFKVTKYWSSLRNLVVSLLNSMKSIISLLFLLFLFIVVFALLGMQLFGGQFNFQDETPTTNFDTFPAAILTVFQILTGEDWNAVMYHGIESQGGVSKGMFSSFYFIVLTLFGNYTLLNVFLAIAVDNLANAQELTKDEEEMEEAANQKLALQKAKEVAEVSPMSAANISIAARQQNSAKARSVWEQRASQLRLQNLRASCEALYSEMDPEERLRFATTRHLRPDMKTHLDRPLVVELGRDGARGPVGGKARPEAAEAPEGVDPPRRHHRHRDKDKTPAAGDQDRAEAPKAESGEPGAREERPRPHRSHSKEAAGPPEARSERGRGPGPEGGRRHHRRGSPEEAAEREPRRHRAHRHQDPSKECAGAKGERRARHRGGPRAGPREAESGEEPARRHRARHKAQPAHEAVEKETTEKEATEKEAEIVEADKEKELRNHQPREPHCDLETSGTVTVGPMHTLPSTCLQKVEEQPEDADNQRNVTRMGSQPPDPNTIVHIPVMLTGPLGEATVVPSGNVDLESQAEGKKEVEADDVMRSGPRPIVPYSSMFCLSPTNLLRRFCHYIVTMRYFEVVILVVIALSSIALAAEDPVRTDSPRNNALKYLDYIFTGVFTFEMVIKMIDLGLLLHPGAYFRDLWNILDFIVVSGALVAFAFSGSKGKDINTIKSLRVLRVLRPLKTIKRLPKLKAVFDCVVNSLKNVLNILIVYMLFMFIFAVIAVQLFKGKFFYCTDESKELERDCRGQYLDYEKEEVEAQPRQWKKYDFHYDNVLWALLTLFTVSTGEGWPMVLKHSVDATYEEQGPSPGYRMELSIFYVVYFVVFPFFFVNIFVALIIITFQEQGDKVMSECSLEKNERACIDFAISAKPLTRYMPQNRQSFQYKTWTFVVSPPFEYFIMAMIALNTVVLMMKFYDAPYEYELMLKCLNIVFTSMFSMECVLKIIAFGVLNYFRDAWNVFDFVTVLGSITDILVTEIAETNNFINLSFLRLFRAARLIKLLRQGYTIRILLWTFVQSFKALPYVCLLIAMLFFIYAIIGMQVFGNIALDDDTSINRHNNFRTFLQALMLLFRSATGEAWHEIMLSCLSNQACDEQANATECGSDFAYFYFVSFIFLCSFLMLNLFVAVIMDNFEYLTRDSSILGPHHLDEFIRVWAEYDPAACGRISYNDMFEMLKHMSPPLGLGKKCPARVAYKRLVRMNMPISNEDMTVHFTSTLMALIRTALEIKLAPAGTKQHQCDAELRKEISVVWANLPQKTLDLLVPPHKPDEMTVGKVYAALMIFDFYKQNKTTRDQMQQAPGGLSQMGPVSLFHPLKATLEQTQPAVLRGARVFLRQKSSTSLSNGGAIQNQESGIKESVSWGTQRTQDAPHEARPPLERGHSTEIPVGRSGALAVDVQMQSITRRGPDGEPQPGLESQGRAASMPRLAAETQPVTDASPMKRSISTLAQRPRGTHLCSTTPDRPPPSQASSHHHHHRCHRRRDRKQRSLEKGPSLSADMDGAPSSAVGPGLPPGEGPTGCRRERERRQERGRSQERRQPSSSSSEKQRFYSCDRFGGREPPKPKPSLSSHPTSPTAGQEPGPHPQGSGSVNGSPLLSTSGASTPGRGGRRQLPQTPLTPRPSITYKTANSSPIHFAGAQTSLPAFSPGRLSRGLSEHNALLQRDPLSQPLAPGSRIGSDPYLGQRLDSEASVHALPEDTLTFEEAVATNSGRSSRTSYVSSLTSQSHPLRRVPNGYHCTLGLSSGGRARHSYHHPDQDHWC
T5 sequence (Q02410 whole entry): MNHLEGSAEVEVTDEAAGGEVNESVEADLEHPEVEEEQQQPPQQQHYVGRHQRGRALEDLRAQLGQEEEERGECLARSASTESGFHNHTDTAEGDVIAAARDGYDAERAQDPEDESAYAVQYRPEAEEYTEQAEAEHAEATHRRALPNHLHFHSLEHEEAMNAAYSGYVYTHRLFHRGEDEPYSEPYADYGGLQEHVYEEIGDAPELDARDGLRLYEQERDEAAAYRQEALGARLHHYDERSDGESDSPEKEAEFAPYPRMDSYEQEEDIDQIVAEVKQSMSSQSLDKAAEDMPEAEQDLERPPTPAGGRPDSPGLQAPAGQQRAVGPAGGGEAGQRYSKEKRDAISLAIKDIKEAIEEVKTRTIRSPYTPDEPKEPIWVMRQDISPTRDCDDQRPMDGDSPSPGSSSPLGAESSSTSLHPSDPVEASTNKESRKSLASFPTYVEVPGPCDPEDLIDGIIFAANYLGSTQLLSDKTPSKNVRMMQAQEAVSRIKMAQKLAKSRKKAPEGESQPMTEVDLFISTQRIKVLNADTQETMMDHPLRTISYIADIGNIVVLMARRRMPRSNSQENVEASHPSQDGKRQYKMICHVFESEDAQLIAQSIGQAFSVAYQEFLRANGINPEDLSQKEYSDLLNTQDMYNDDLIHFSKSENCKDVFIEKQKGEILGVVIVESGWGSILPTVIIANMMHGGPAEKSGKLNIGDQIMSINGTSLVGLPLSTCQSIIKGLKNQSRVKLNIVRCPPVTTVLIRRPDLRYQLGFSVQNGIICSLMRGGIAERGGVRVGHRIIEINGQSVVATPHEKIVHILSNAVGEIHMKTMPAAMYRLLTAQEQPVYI
Chain of Cytochrome P450 2D6 (P10635 whole entry): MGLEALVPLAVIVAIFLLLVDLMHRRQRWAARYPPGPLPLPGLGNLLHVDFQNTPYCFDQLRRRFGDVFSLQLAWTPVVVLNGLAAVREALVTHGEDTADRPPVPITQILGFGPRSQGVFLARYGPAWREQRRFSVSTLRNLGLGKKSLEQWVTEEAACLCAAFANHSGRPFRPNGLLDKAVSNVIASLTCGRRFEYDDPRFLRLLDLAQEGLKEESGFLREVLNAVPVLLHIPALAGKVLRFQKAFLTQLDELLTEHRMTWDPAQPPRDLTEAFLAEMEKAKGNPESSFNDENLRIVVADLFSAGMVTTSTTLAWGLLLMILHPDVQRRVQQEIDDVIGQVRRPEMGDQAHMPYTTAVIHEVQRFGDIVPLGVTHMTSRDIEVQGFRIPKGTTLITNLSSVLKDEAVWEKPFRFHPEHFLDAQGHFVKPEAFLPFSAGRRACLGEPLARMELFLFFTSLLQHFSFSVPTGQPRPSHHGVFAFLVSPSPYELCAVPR
Chain of Cytochrome P450 3A4 (P08684 whole entry): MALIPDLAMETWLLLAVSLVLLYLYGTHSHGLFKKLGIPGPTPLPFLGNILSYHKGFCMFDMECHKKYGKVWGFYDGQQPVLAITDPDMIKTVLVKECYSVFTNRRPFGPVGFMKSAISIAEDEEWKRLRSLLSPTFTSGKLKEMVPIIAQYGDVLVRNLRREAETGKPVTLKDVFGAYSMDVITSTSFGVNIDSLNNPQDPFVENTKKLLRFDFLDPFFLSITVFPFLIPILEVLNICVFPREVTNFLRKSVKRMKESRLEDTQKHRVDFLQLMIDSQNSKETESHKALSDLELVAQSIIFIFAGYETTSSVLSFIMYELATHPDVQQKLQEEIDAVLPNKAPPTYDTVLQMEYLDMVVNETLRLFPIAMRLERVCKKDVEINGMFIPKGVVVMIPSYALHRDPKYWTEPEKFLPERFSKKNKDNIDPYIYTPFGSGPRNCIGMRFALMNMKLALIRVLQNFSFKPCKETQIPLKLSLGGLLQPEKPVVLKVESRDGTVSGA
Chain of Eukaryotic translation initiation factor 4E (P63073 whole entry): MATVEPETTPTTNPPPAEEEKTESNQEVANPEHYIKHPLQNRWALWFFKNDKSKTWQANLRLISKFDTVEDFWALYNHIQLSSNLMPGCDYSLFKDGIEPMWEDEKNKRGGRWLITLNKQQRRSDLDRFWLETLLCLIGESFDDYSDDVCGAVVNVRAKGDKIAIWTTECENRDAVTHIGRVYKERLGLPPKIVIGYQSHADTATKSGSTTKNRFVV
Chain of Cytochrome P450 2C9 (P11712 whole entry): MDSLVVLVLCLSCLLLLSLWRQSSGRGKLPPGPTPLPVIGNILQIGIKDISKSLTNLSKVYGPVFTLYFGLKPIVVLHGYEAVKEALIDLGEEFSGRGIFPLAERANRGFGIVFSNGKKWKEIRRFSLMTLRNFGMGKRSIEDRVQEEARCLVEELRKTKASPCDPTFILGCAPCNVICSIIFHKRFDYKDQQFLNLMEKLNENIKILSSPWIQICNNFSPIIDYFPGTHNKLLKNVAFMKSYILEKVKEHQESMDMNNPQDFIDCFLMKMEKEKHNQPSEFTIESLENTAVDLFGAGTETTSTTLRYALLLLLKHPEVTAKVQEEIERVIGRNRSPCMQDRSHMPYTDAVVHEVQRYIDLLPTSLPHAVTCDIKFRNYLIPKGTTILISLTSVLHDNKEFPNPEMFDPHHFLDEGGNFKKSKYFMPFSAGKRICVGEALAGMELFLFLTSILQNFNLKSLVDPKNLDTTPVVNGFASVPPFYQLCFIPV

For `CCOC(=O)[C@H]1[C@H]2COc3ccc(Br)cc3[C@@H]2N2C(=O)c3cc(OC)c(OC)cc3NC(=O)[C@@]12C`, the CC50 [1] was > 40 µM (active) and the IC50 (H9c2) was 15.5 µM (active).
In the case of `COc1ccc(CC(CC(=O)O)C(=O)Nc2ccccc2)cc1` (configuration not stated), the IC50 (Leucine aminopeptidase) is reported as 47.2 µM (active).
With `CCCCCCCN(C(=O)CCl)c1ccccc1C` the CC50 [1] was 2.82 µM (active), the AC50 [2] was 7.86 µM (active) and the EC50 (Protein RecA) was 0.893 µM (active).
For `Cc1ccc(S(=O)(=O)Nc2nc3c(s2)C(=O)CC(C)(C)C3)cc1`, the IC50 (Leucine aminopeptidase) was 94.4 µM (active).
In the case of `COc1ccc(-c2nn(-c3ccccc3)cc2C(=O)Nc2nccs2)cc1OC`, the CC50 [1] is reported as 32 µM (active).
With `O=C(NCCc1csc(-c2ccc(C(F)(F)F)cc2)n1)c1cccs1` the EC50 [3] was 4.14 µM (active).
With `Nc1ccc(S(=O)(=O)N2CCCc3ccccc32)cc1` the IC50 [4] was > 64 µM (inactive).
For `Fc1ccc(SCCc2ccccn2)cc1`, the IC50 (Coagulation factor XII) was > 50 µM (inactive).
With `CCCCCOC(=O)Nc1nnc(CCCCC)s1` the IC50 (Coagulation factor XII) was > 50 µM (inactive).
For `O=C1NC(=O)N(Cc2ccccc2)C(=O)/C1=C/c1cnn(-c2ccccc2)c1`, the IC50 [5] was 14.9 µM (active) and the IC50 [6] was > 50 µM (inactive).
With `Cc1cccc(NC(=S)NC2CCCC2)n1` the IC50 [5] was 7.9 µM (active) and the IC50 [6] was > 50 µM (inactive).
With `CCc1cccc(NC(=O)C[S+]([O-])Cc2nc(-c3ccc(C)cc3)oc2C)c1` (configuration not stated) the EC50 [3] was 3.17 µM (active).
In the case of `CCOC(=O)c1c(NC(=S)NC(=O)c2ccc(Cn3cc(Cl)cn3)o2)sc2c1CCC(C)C2` (configuration not stated), the CC50 [1] is reported as 12.2 µM (active), the EC50 [7] is reported as 5.87 µM (active) and the EC50 [8] is reported as 6.18 µM (active).
For `O=C(c1ccccc1)C1CN(c2ccccc2)CC1c1ccc(Cl)cc1` (configuration not stated), the IC50 (Coagulation factor XII) was > 50 µM (inactive), the AC50 (Cytochrome P450 2D6) was 3.16 µM (inconclusive) and the AC50 (Cytochrome P450 1A2) was 3.55 µM (inconclusive). For the same compound, the AC50 (Cytochrome P450 3A4) was 8.91 µM (inconclusive) and the AC50 (Cytochrome P450 2C9) was 5.01 µM (inconclusive).
For `O=C1CC(SCCc2nc3ccccc3[nH]2)C(=O)N1c1ccc(Cl)cc1` (configuration not stated), the EC50 [3] was 613 µM (active).
In the case of `CCCOc1ccc(CCC(=O)N/N=C/c2ccc([N+](=O)[O-])o2)cc1`, the EC50 [9] is reported as > 120 µM (not active), the EC50 [10] is reported as > 120 µM (not active) and the EC50 [11] is reported as > 120 µM (not active). The CC50 [12] was 13.1 µM (active), the CC50 [13] was 19.3 µM (active) and the IC50 (cells) was 5.03 µM (active).
For `CC1(C)C2CC=C(/C=N/n3cnnc3)C1C2` (configuration not stated), the IC50 (Coagulation factor XII) was > 50 µM (inactive).
In the case of `O=C(NC1CCCCC1)N(Cc1ccccc1)Cc1ccco1`, the EC50 [3] is reported as 3.68 µM (active).
In the case of `O=C(NCc1ccco1)c1scc2c1OCCO2`, the IC50 (Coagulation factor XII) is reported as > 50 µM (inactive).
For `COc1ccc(NC(=O)c2ccco2)cc1NC(=O)c1cccc(OC(C)C)c1`, the EC50 [3] was 8.24 µM (active).
In the case of `CCCOc1cccc(C(=O)N(Cc2ccco2)C2CCS(=O)(=O)C2)c1` (configuration not stated), the IC50 (Prothrombin) is reported as > 50 µM (not active).
